Biological target: T1, human recombinant mGluR5 (Homo sapiens, UniProt P41594)
T1 construct: expressed in transfected cells; host or cells: HEK 293 cell line cultured with tetracycline, hygromycin and geneticin; tetracycline removed 3-7 days before the assay
Assay: positive modulation of mGluR5, calcium based FLIPR assay in HEK 293 cells
Conditions: HEK 293 cell line expressing human recombinant mGluR5; EC50 of the modulation of the glutamate response (glutamate approx. 5% basal stimulation); peak height of Ca release fluorescence signal
Description: The positive modulation of mGluR5 is measured in a HEK 293 cell line expressing human recombinant mGluR5 and is detected with calcium based FLIPR assay. The cells are cultured with DMEM supplemented with 10% FCS, 2 μg/mL tetracycline, 100 μg/mL hygromycin and 500 μg/mL gneticin. The cell culture media is exchanged for tetracycline-free cell culture media 3-7 days before the assay. One day before the assay the cell culture medium is exchanged to DMEM without glutamine and phenol red and supplemented with 10% FCS, 100 μg/mL hygromycin and 500 μg/mL geneticin. On the assay day, the medium of the subconfluent cultures is removed and the cells are detached by addition of 2.5 ml EDTA (0.02%) per 175 cm2 culture flask for 1 minute. The cells are resuspend in Ringer solution (140 mM NaCl, 5 mM KCl, 2.5 mM CaCl2, 1.5 mM MgCl2, 5 mM Glucose, 10 mM Hepes; adjusted to pH 7.4 with NaOH), pooled and Ringer solution added to adjust the volume to 50 mL. The cell suspension is centrifuged for […] at 1500 U/min (425 g). The supernatant is removed and the cells washed a second time with 50 ml fresh Ringer solution and centrifuged again as before. The supernatant is again removed and the pellet resuspended in Ringer solution to 1,000,000 cells/ml (1×10^6 cells/mL). The cells are plated onto BD BioCoat Poly-D-Lysine 384 well plates (20.000 cells/well; 20 μl/well). The lid covered plates are then incubated until use at 37° C./10% CO2. For dye loading, 20 μl of Calcium-4 assay kit solution (prepared according to the manufacturer's description in Ringer solution) are added to the cells and the plates are incubated for 80 min 37° C. and then 10 min at room temperature.
Controls, Compound Dilution and Assay Execution:
Each assay plate contained wells with “high” and “low” controls:
Low controls 1% DMSO/ringer solution+basal glutamate activation (defined as 100% CTL).
High controls 10 μM CDPPB+basal glutamate activation (defined as 200% CTL).
Test compounds are dissolved and diluted in DMSO to 100-fold the desired concentrations. In a second step, the compounds are diluted in Ringer solution such that the compounds are 4-fold more concentrated than the desired final assay concentration. The final DMSO concentration was 1%.
20 μl of each compound solution are then transferred to the assay plate and the Ca2+ kinetic is measured to determine any intrinsic compound activity. After 5 min incubation in the FLIPR device, the second stimulation with 20 μl of glutamate in Ringer solution (glutamate concentration adjusted to approximately 5% basal stimulation of the maximal possible glutamate effect) is added and the kinetic Ca2+ response of the wells was measured for the modulation effect.
The peak height of the Ca release related fluorescence signal (9-66) is used for the EC50. The EC50 of the modulation is calculated over a nonlinear regression with GraphPad Prism (Table 1).

T1 sequence (P41594 21-1212): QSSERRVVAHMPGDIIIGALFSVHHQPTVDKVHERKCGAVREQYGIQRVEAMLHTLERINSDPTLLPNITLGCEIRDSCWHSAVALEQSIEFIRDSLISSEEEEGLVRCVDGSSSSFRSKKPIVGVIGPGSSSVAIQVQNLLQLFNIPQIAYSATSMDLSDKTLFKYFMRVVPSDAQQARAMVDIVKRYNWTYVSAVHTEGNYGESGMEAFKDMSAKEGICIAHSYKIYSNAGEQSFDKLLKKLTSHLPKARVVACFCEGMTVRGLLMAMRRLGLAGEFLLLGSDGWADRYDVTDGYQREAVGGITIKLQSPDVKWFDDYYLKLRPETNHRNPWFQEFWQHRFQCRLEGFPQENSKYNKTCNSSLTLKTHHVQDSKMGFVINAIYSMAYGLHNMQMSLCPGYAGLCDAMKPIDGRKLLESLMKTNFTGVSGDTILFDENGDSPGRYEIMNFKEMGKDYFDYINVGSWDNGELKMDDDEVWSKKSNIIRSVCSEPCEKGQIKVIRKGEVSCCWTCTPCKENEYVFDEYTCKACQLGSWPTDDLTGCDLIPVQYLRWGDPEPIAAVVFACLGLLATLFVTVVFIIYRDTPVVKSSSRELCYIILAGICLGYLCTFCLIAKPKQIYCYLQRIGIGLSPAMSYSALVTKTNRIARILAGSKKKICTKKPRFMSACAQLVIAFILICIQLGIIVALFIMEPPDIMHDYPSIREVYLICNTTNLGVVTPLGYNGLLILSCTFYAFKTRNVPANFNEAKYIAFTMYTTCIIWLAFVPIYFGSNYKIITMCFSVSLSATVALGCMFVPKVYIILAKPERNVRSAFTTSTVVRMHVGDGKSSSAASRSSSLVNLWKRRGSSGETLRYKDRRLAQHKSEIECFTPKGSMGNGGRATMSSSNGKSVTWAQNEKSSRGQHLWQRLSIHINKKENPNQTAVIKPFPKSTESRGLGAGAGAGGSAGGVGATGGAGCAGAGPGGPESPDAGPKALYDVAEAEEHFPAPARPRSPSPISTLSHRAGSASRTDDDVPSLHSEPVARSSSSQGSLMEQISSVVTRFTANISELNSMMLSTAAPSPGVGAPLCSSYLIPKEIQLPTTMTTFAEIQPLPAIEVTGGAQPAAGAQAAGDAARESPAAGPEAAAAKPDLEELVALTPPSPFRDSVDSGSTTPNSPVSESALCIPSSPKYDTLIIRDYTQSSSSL

Structure (SMILES) | EC50
O=C(Cn1nc(-c2ccc(F)cc2)nc1-c1ccc(F)cc1)N1CCN(c2cc(O[C@H]3CCOC3)ncn2)CC1 [Example 07.09.11.] | 56 nM
COCc1cccc(-c2nc(-c3ccccc3)n(CC(=O)N3CCN(c4ncccn4)CC3)n2)c1 [Example 07.10.08.] | 181 nM
O=C(Cn1nc(-c2ccc(F)cc2)nc1-c1ccc(F)cc1)N1CCN(c2cccnc2)CC1 [Example 07.04.004.] | 600 nM
CCOc1cc(N2CCN(C(=O)Cn3nc(-c4ccc(F)cc4)nc3-c3ccc(F)cc3)CC2)ncn1 [Example 07.06.02.] | 70 nM
O=C(Cn1nc(-c2ccc(F)cc2)nc1-c1ccc(F)cc1)N1CCN(c2cc(OCC3CCCO3)ncn2)CC1 (stereo not drawn) [Example 07.09.02.] | 59 nM
Cc1cc(-c2nc(C3CCC(F)(F)CC3)n(CC(=O)N3CCN(c4ncccn4)CC3)n2)ccc1F [Example 07.04.144.] | 1270 nM
O=C(Cn1nc(-c2ccc(F)cc2)nc1C#Cc1ccccc1)N1CCN(c2ccccn2)CC1 [Example 07.11.01., 2-(3-(4-fluoro-phenyl)-5-phenylethynyl-(1,2,4)triazol-1-yl)-1-(4-pyridin-2-yl-piperazin-1-yl)-ethanone] | 98 nM
Cc1ccnc(N2CCN(C(=O)Cn3nc(-c4ccccc4)nc3-c3ccc(F)c(C)c3)CC2)c1 [Example 07.04.075.] | 657 nM
O=C(Cn1nc(-c2ccc(F)cc2)nc1-c1ccccc1)N1CCN(c2ncccn2)CC1 [Example 07.10.14.] | 33 nM
COCCOCCOc1cc(N2CCN(C(=O)Cn3nc(-c4ccc(F)cc4)nc3-c3ccc(F)cc3)CC2)ncn1 [Example 07.09.06.] | 130 nM
N#CCc1ccc(-c2nc(-c3ccccc3)nn2CC(=O)N2CCN(c3ncccn3)CC2)cc1 [Example 07.10.21.] | 1500 nM
CN(C)c1cc(N2CCN(C(=O)Cn3nc(-c4ccc(F)cc4)nc3-c3ccc(F)cc3)CC2)ccn1 [Example 07.03.23.] | 1010 nM
COc1cc(N2CCN(C(=O)Cn3nc(-c4ccc(F)c(Cl)c4)nc3-c3ccccc3)CC2)ncn1 [Example 07.10.37.] | 101 nM
COc1ccc(-c2nc(-c3ccccc3)n(CC(=O)N3CCN(c4cc(C)ccn4)CC3)n2)cc1OC [Example 07.02.20.] | 162 nM
O=C(Cn1nc(-c2ccc(F)cc2)nc1-c1ccc(F)cc1)N1CCN(c2nccc(C(F)(F)F)n2)CC1 [Example 07.03.21.] | 278 nM
COc1cc(N2CCN(C(=O)Cn3nc(-c4ccc(F)cc4)nc3-c3ccc(F)c(OC)c3)CC2)ncn1 [Example 07.04.079.] | 1330 nM
CCNc1cc(N2CCN(C(=O)Cn3nc(-c4ccc(F)cc4)nc3-c3ccc(F)cc3)CC2)ncn1 [Example 07.08.12.] | 210 nM
Cc1cc(-c2nc(C3CCCCC3)n(CC(=O)N3CCN(c4ncc(Cl)cn4)CC3)n2)ccc1F [Example 07.04.069.] | 229 nM
COc1ccc(-c2nc(-c3ccc(OC)cc3)n(CC(=O)N3CCN(c4ccc(C(F)(F)F)cn4)CC3)n2)cc1 [Example 07.02.14.] | 1050 nM
CN(C)c1nccc(N2CCN(C(=O)Cn3nc(-c4ccc(F)cc4)nc3-c3ccc(F)cc3)CC2)n1 [Example 07.03.22.] | 476 nM
N#Cc1ccc(N2CCN(C(=O)Cn3nc(-c4ccc(F)cc4)nc3-c3ccc(F)cc3)CC2)nc1 [Example 07.04.11.] | 1570 nM
CCc1nc(-c2ccc(F)c(C)c2)nn1CC(=O)N1CCN(c2cc(OC)ncn2)CC1 [Example 07.04.093.] | 1730 nM
N#Cc1cccnc1N1CCN(C(=O)Cn2nc(-c3ccc(F)cc3)nc2-c2ccc(F)cc2)CC1 [Example 07.02.01., 2-(4-(2-(3,5-Bis-(4-fluoro-phenyl)-(1,2,4)triazol-1-yl)-acetyl)-piperazin-1-yl)-nicotinonitrile] | 190 nM
O=C(Cn1nc(-c2ccc(F)cc2)nc1-c1ccc(F)cc1)N1CCN(c2ccccc2F)CC1 [Example 07.04.13.] | 1210 nM
COc1cc(N2CCN(C(=O)Cn3nc(-c4cc(F)c(F)c(F)c4)nc3-c3ccccc3)CC2)ncn1 [Example 07.10.39.] | 389 nM
COCCCCOc1cc(N2CCN(C(=O)Cn3nc(-c4ccc(F)cc4)nc3-c3ccc(F)cc3)CC2)ncn1 [Example 07.09.01., 2-(3,5-Bis-(4-fluoro-phenyl)-(1,2,4)triazol-1-yl]-1-(4-(6-(4-methoxy-butoxy)-pyrimidin-4-yl)-piperazin-1-yl)-ethanone] | 68 nM

Structure (SMILES) | EC50
Cc1cc(-c2nc(C3CCC(C)CC3)n(CC(=O)N3CCN(c4ncccn4)CC3)n2)ccc1F (stereo not drawn) [Example 07.04.128.] | 485 nM
CN1CCN(CCCOc2cc(N3CCN(C(=O)Cn4nc(-c5ccc(F)cc5)nc4-c4ccc(F)cc4)CC3)ncn2)CC1 [Example 07.09.26.] | 252 nM
CN(C)c1ccnc(N2CCN(C(=O)Cn3nc(-c4ccc(F)cc4)nc3-c3ccc(F)cc3)CC2)c1 [Example 07.03.17.] | 601 nM
COc1ccnc(N2CCN(C(=O)Cn3nc(-c4ccc(F)cc4)nc3-c3ccc(F)cc3)CC2)c1 [Example 07.03.01., 2-(3,5-Bis-(4-fluoro-phenyl)-(1,2,4)triazol-1-yl)-1-(4-(4-methoxy-pyridin-2-yl)-piperazin-1-yl)-ethanone] | 88 nM
CN(C)CCOc1cc(N2CCN(C(=O)Cn3nc(-c4ccc(F)cc4)nc3-c3ccc(F)cc3)CC2)ncn1 [Example 07.07.02.] | 988 nM
O=C(Cn1nc(-c2ccc(F)cc2)nc1-c1ccc(F)cc1)N1CCN(c2ccc(Cl)cn2)CC1 [Example 07.04.12.] | 176 nM
COc1ccc(-c2nc(-c3ccc(F)cc3)n(CC(=O)N3CCN(c4cc(C)ccn4)CC3)n2)cc1 [Example 07.04.032.] | 39 nM
O=C(Cn1nc(-c2ccc(F)cc2)nc1-c1ccc(F)cc1)N1CCN(c2cnccn2)CC1 [Example 07.04.008.] | 117 nM
CC(C)Oc1ccc(-c2nc(-c3ccccc3)n(CC(=O)N3CCN(c4ncccn4)CC3)n2)cc1 [Example 07.10.18.] | 1050 nM
COc1ccc(Cl)cc1N1CCN(C(=O)Cn2nc(-c3ccc(F)cc3)nc2-c2ccc(F)cc2)CC1 [Example 07.04.002.] | 2000 nM
Cc1cc(-c2nc(C3CCCC(C)C3)n(CC(=O)N3CCN(c4ncccn4)CC3)n2)ccc1F (stereo not drawn) [Example 07.04.145.] | 373 nM
O=C(Cn1nc(-c2ccc(F)cc2)nc1-c1ccc(F)cc1)N1CCN(c2cc(OCC3CCCCO3)ncn2)CC1 (stereo not drawn) [Example 07.09.10.] | 52 nM
CCCCCc1nc(-c2ccc(F)c(C)c2)nn1CC(=O)N1CCN(c2cc(C)ccn2)CC1 [Example 07.04.125.] | 109 nM
O=C(Cn1nc(-c2ccccc2)nc1-c1ccccc1)N1CCN(c2ncccn2)CC1 [Example 07.04.018.] | 200 nM
CCCc1nc(-c2ccc(OC(F)F)cc2)nn1CC(=O)N1CCN(c2cc(OC)ncn2)CC1 [Example 7.04.169] | 928 nM
O=C(Cn1nc(-c2ccc(F)cn2)nc1-c1ccc(F)cc1)N1CCN(c2ccccn2)CC1 [Example 07.04.139.] | 809 nM
O=C(Cn1nc(-c2ccc(F)cc2)nc1-c1ccc(F)cc1)N1CCN(c2cc(Cl)ncn2)CC1 [Example 07.03.09.] | 121 nM
COCCCN(C)c1cc(N2CCN(C(=O)Cn3nc(-c4ccc(F)cc4)nc3-c3ccc(F)cc3)CC2)ncn1 [Example 07.08.11.] | 293 nM
COc1ccc(-c2nc(-c3ccc(F)cc3)n(CC(=O)N3CCN(c4cccnn4)CC3)n2)cc1 [Example 07.04.037.] | 114 nM
COc1ccc(-c2nc(-c3ccccc3)n(CC(=O)N3CCN(c4ncccc4C#N)CC3)n2)cc1OC [Example 07.02.19.] | 494 nM
O=C(Cn1nc(-c2ccc(F)cc2)nc1-c1ccc(F)cc1)N1CCN(c2cc(OCCCN3CCOCC3)ncn2)CC1 [Example 07.09.19.] | 200 nM
Cc1ccnc(N2CCN(C(=O)Cn3nc(-c4ccc(F)c(C)c4)nc3CC(C)C)CC2)c1 [Example 07.04.105.] | 382 nM
COc1ccnc(N2CCN(C(=O)Cn3nc(-c4ccc(F)cn4)nc3-c3ccc(F)cc3)CC2)c1 [Example 07.04.142.] | 434 nM
Cc1ccnc(N2CCN(C(=O)Cn3nc(-c4ccc(F)c(C)c4)nc3C3CCCCC3)CC2)c1 [Example 07.04.067.] | 207 nM
CCCc1nc(-c2ccc(F)c(C)c2)nn1CC(=O)N1CCN(c2ccccn2)CC1 [Example 07.04.083.] | 497 nM

From patent US8889677B2, “Substituted triazoles useful as mGlu5 receptor modulators” (Boehringer Ingellheim International GmbH, priority 2012, dated 2014)
